From PubChem BioAssay (NCI)
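Cultured in 96-well plates, cells were exposed to test compound for 48 hours across five concentrations. TGI: total growth inhibition.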

What was measured:
Experiment in all cases: growth of human tumour cells (NCI), 48 h
[1] = system: OVCAR-4 ovarian
[2] = system: OVCAR-3 ovarian
[3] = system: NCI-H522 lung
[4] = system: DMS 273 small cell lung
[5] = system: KM20L2 colon
[6] = system: LXFL 529 NSCLC
[7] = system: HOP-18 NSCLC
[8] = system: CAKI-1 renal
[9] = system: DMS 114 small cell lung
[10] = system: U251 CNS
[11] = system: HOP-62 NSCLC
[12] = system: HT29 colon
[13] = system: HCC-2998 colon
[14] = system: 786-0 renal

CCOc1ccccc1N=Nc1c(-c2ccccc2)nn(C(=O)CC(=O)Nc2cccc(C)c2)c1-c1ccccc1
TGI [1]: > 100 µM
TGI [2]: > 100 µM
TGI [3]: > 100 µM
TGI [4]: > 100 µM
TGI [5]: > 100 µM
TGI [6]: > 100 µM
TGI [7]: > 100 µM
TGI [8]: > 100 µM
TGI [9]: > 100 µM
TGI [10]: > 100 µM
TGI [11]: > 100 µM
TGI [12]: > 100 µM
TGI [13]: > 100 µM
TGI [14]: > 100 µM

C/C=C1\CN2CCc3c([nH]c4ccccc34)C2CC1CCO (centres undefined)
TGI [1]: > 100 µM
TGI [2]: > 100 µM
TGI [3]: > 100 µM
TGI [4]: > 100 µM
TGI [5]: > 100 µM
TGI [6]: > 100 µM
TGI [7]: > 100 µM
TGI [9]: > 100 µM
TGI [10]: > 100 µM
TGI [11]: > 100 µM
TGI [12]: > 100 µM
TGI [13]: > 100 µM
TGI [14]: > 100 µM

COc1cc(OC)cc(-c2cc(=O)c3cc4c(cc3[nH]2)OCO4)c1
TGI [1]: > 96.1 µM
TGI [2]: 5.82 µM
TGI [3]: 0.593 µM
TGI [4]: 3.31 µM
TGI [5]: 0.652 µM
TGI [6]: 20.6 µM
TGI [7]: > 75.6 µM
TGI [8]: > 100 µM
TGI [9]: 0.726 µM
TGI [10]: > 31.9 µM
TGI [11]: 17.9 µM
TGI [12]: > 100 µM
TGI [13]: 0.787 µM
TGI [14]: 33 µM

Cn1cc2ccccc2c1-c1nc(F)nc(Oc2ccc3c(c2)CC[C@@H]2C3CC[C@@]3(C)C2C[C@H](O)[C@@H]3O)n1 (some centres undefined)
TGI [2]: 78.8 µM
TGI [3]: 27.2 µM
TGI [4]: 22 µM
TGI [5]: 29.4 µM
TGI [6]: 27.4 µM
TGI [7]: 54.8 µM
TGI [8]: 34.8 µM
TGI [9]: 25 µM
TGI [10]: 23.5 µM
TGI [11]: 18.7 µM
TGI [12]: 40.5 µM
TGI [13]: 29.9 µM
TGI [14]: 31.3 µM
